Assay results from ChEMBL document CHEMBL1629481, “A regio- and stereoselective 1,3-dipolar cycloaddition for the synthesis of novel spiro-pyrrolothiazolyloxindoles and their antitubercular evaluation” (2010).
Converted amounts (≈) assume the structure as drawn.

Test system: Mycobacterium tuberculosis
Assay: Antimycobacterial activity against Mycobacterium tuberculosis H37Rv by agar dilution method
Format: functional

Structure (SMILES) | MIC [µg/mL]
Cc1ccc([C@H]2[C@@H]3CSCN3[C@@]3(C(=O)Nc4ccccc43)[C@@]23Cc2ccccc2C3=O)cc1 | > 55.2
CC[C@@H](CO)NCCN[C@@H](CC)CO [ETHAMBUTOL] | 7.6 (≈ 37.2 µM)
O=C1Nc2ccccc2[C@]12N1CSC[C@H]1[C@H](c1cccc(Cl)c1Cl)[C@]21Cc2ccccc2C1=O | 12.3 (≈ 24.2 µM)
O=C1Nc2ccc(Cl)cc2[C@]12N1CSC[C@H]1[C@H](c1ccc(Br)cc1)[C@]21Cc2ccccc2C1=O | 11.3 (≈ 20.5 µM)
O=C1Nc2ccccc2[C@]12N1CSC[C@H]1[C@H](c1ccccc1Cl)[C@]21Cc2ccccc2C1=O | 26.4 (≈ 55.8 µM)
COc1ccc([C@H]2[C@@H]3CSCN3[C@@]3(C(=O)Nc4ccc(Cl)cc43)[C@@]23Cc2ccccc2C3=O)cc1 | > 49.7
O=C1Nc2ccc([N+](=O)[O-])cc2[C@]12N1CSC[C@H]1[C@H](c1ccccc1Cl)[C@]21Cc2ccccc2C1=O | 12.1 (≈ 23.4 µM)
O=C1Nc2ccccc2[C@]12N1CSC[C@H]1[C@H](c1ccc([N+](=O)[O-])cc1)[C@]21Cc2ccccc2C1=O | 12.9 (≈ 26.7 µM)
O=C1Nc2ccc([N+](=O)[O-])cc2[C@]12N1CSC[C@H]1[C@H](c1ccc(Cl)cc1)[C@]21Cc2ccccc2C1=O | 24.1 (≈ 46.5 µM)
O=C1Nc2ccccc2[C@]12N1CSC[C@H]1[C@H](c1ccc(Br)cc1)[C@]21Cc2ccccc2C1=O | 24.2 (≈ 46.8 µM)
O=C1Nc2ccc([N+](=O)[O-])cc2[C@]12N1CSC[C@H]1[C@H](c1ccc(Br)cc1)[C@]21Cc2ccccc2C1=O | 11.1 (≈ 19.7 µM)
Cc1ccccc1[C@H]1[C@@H]2CSCN2[C@@]2(C(=O)Nc3ccccc32)[C@@]12Cc1ccccc1C2=O | > 55.2
Cc1ccc([C@H]2[C@@H]3CSCN3[C@@]3(C(=O)Nc4ccc(Cl)cc43)[C@@]23Cc2ccccc2C3=O)cc1 | 51.3 (≈ 105 µM)
Cc1ccccc1[C@H]1[C@@H]2CSCN2[C@@]2(C(=O)Nc3ccc(Cl)cc32)[C@@]12Cc1ccccc1C2=O | 25.7 (≈ 52.8 µM)
O=C1Nc2ccc(Cl)cc2[C@]12N1CSC[C@H]1[C@H](c1ccc(F)cc1)[C@]21Cc2ccccc2C1=O | 12.7 (≈ 25.9 µM)
O=C1Nc2ccc([N+](=O)[O-])cc2[C@]12N1CSC[C@H]1[C@H](c1cccc(Cl)c1Cl)[C@]21Cc2ccccc2C1=O | 2.8 (≈ 5.07 µM)

Structure (SMILES) | MIC [µg/mL]
O=C1Nc2ccc(Cl)cc2[C@]12N1CSC[C@H]1[C@H](c1cccc(Cl)c1Cl)[C@]21Cc2ccccc2C1=O | 5.8 (≈ 10.7 µM)
O=C1Nc2ccc(Cl)cc2[C@]12N1CSC[C@H]1[C@H](c1cccs1)[C@]21Cc2ccccc2C1=O | 52.2 (≈ 109 µM)
O=C1Nc2ccc(Cl)cc2[C@]12N1CSC[C@H]1[C@H](c1ccccc1Cl)[C@]21Cc2ccccc2C1=O | 12.3 (≈ 24.2 µM)
COc1ccc([C@H]2[C@@H]3CSCN3[C@@]3(C(=O)Nc4ccccc43)[C@@]23Cc2ccccc2C3=O)cc1 | > 53.4
O=C1Nc2ccc(Cl)cc2[C@]12N1CSC[C@H]1[C@H](c1ccc([N+](=O)[O-])cc1)[C@]21Cc2ccccc2C1=O | 12.1 (≈ 23.4 µM)
COc1ccc([C@H]2[C@@H]3CSCN3[C@@]3(C(=O)Nc4ccc([N+](=O)[O-])cc43)[C@@]23Cc2ccccc2C3=O)cc1 | 24.3 (≈ 47.3 µM)
O=C1Nc2ccccc2[C@]12N1CSC[C@H]1[C@H](c1ccc(Cl)cc1)[C@]21Cc2ccccc2C1=O | 52.9 (≈ 112 µM)
O=C1Nc2ccc([N+](=O)[O-])cc2[C@]12N1CSC[C@H]1[C@H](c1ccc(F)cc1)[C@]21Cc2ccccc2C1=O | 3.1 (≈ 6.18 µM)
O=C1Nc2ccccc2[C@]12N1CSC[C@H]1[C@H](c1ccc(F)cc1)[C@]21Cc2ccccc2C1=O | 13.7 (≈ 30 µM)
O=C1Nc2ccccc2[C@]12N1CSC[C@H]1[C@H](c1cccs1)[C@]21Cc2ccccc2C1=O | 56.2 (≈ 126 µM)
O=C1Nc2ccc(Cl)cc2[C@]12N1CSC[C@H]1[C@H](c1ccc(Cl)cc1)[C@]21Cc2ccccc2C1=O | 24.6 (≈ 48.5 µM)
NNC(=O)c1ccncc1 [ISONIAZID] | 0.4 (≈ 2.92 µM)
Cc1ccccc1[C@H]1[C@@H]2CSCN2[C@@]2(C(=O)Nc3ccc([N+](=O)[O-])cc32)[C@@]12Cc1ccccc1C2=O | 25.1 (≈ 50.4 µM)
CO[C@H]1/C=C/O[C@@]2(C)Oc3c(C)c(O)c4c(O)c(c(/C=N/N5CCN(C)CC5)c(O)c4c3C2=O)NC(=O)/C(C)=C\C=C\[C@H](C)[C@H](O)[C@@H](C)[C@@H](O)[C@@H](C)[C@H](OC(C)=O)[C@@H]1C [RIFAMPIN] | 0.1 (≈ 0.122 µM)
O=C1Nc2ccc([N+](=O)[O-])cc2[C@]12N1CSC[C@H]1[C@H](c1ccc([N+](=O)[O-])cc1)[C@]21Cc2ccccc2C1=O | 5.9 (≈ 11.2 µM)
Cc1ccc([C@H]2[C@@H]3CSCN3[C@@]3(C(=O)Nc4ccc([N+](=O)[O-])cc43)[C@@]23Cc2ccccc2C3=O)cc1 | 25.1 (≈ 50.4 µM)
